Assay results: EP1379634B1 (THE UNIVERSITY OF GEORGIA RESEARCH FOUNDATION, INC., priority 2001, dated 2002)
Residues, ends and D or L forms follow the SMILES beside them. *: point of attachment. AFC = O=c1cc(C(F)(F)F)c2ccc(N*)cc2o1; Cbz = O=C(OCc1ccccc1)*; CH2F = FC*

Tests used:
[1] = tested on: Taenia solium crude mix; assay: Competitor assay of vehicles against high Vmax substrate cocktails (Step III), crude mix; type: biochemical
Source text: Step III for a crude mix proceeds as it would for a purified protease, except that Vm is used instead of kcat.
One of the most intriguing findings in this experiment was that a highly similar inhibition pattern for the competitor assay resulted when the crude mix was employed as the source of the target protease. Although there were some variations in the effects of inhibitor dilution, the most highly ranked vehicles remained inhibitory consistently in comparison to the profile with the target protease. The relative profile and composition of the top tier of vehicles was identical. Z-LLL-AFC, Z-LLY-AFC, Mu-LY-AFC, Boc-VPR-AFC, Z-SY-AFC, Z-RR-AFC, Z-FLF-AFC, and Z-LGR-AFC consistently emerged as the top eight vehicles (Fig. 5b), respectively, based upon their V values (Table 2). […] It was notable that the three vehicles had very similar V values. […] As was mentioned, this vehicle along with Z-LLL-AFC and Z-LLY-AFC, were consistently the most inhibitory vehicles. The V values of the most inhibitory vehicle series are shown below in Table 2. Again, a clear break between the first and second tier vehicles is discernible for the V value. Table 2. Vehicles and V value rankings.

[2] = tested on: T. solium (cysteine); assay: Selectivity test (Steps VI and IX), T. solium cysteine protease; type: biochemical, Taenia solium
Description: (§1) In order to perform the assay, the vehicle (for Step VI) or inhibitor (for Step IX) were incubated with the appropriate substrate in the correct assay buffer and allowed to equilibrate. Subsequently, the protease was added, and the assay was allowed to incubate for an appropriate time. The concentrations used in this experiment were as follows: Vehicle was set up at 4 X 10^-5 M in final assay buffer; Inhibitor was set up at 3 X 10^-10 M in the final assay buffer. Preferably the dosages employed should be the minimal amount of vehicle or inhibitor necessary to induce inhibition. […] Substrates were set up based upon the preferred substrate for cleavage of the particular enzyme.
(§2) Positive controls were set up similarly as described for test controls, except that a solvent blank was added in substitution for the inhibitor or vehicle (in a volume equal to the volume of inhibitor or vehicle addition). All of the inhibitors and vehicles could be dissolved in dimethylsulfoxide (DMSO), and therefore, this was the solvent of choice. Negative controls were set up by adding the inhibitor or vehicle and the preferred substrates in a tube without the protease. All potential non-proteolytic liberation of AFC was therefore controlled for in this tube.
(§3) All controls were set up in triplicate, and experiments were repeated a minimum of five times.
(§4) Percent inhibition was calculated as: %Inhibition = ((AFC positive for "SI"−AFC negative for "SI")−(AFC test−AFC negative for "SI"))/(AFC positive for "SI"−AFC negative for "SI") × 100 [formula]
(§5) In this preliminary test, we employed the following human-derived enzymes (with indicated mechanistic class in parentheses): Cathepsin B (cysteine), Cathepsin L (cysteine), Cathepsin H (cysteine), Cathepsin D (aspartic), Trypsin (serine), the purified Taenia solium cysteine protease, and the Taenia solium crude mix. Cathepsin B was prepared in an assay buffer of 10 mM L-cysteine in 0.4 M Citrate buffer, pH 6.1, using Z-ARR-AFC as the cleavage substrate. Cathepsin L was prepared in an assay buffer of 10 mM L-cysteine in 0.4 M Citrate buffer, pH 5.5, using Z-FR-AFC as the cleavage substrate. Cathepsin H was prepared in an assay buffer of 10 mM L-cysteine in 0.15 M PBS buffer, pH 6.8, using L-R-AFC as the cleavage substrate. Cathepsin D was prepared in an assay buffer of 0.15 M PBS, pH 7.1, using Z-RGFFP-AFC as the cleavage substrate. Trypsin was prepared in an assay buffer of 0.15 M PBS, pH 8.0, supplemented with 100 mM CaCl2 and with Z-R-AFC as the cleavage substrate. Enzyme was incubated so that it was at least 50 times less than the concentration of substrate in order to insure saturating conditions.

[3] = tested on: Trypsin; assay: Selectivity test (Steps VI and IX), Trypsin; type: biochemical, human; settings: pH 8.0, substrate Z-R-AFC
Description: as §1, §2, §3, §4, §5

[4] = molecular target: Cathepsin L (Homo sapiens, UniProt P07711); assay: Selectivity test (Steps VI and IX), Cathepsin L; type: biochemical; settings: pH 5.5, substrate Z-FR-AFC
Sequence of Cathepsin L (P07711 114-333): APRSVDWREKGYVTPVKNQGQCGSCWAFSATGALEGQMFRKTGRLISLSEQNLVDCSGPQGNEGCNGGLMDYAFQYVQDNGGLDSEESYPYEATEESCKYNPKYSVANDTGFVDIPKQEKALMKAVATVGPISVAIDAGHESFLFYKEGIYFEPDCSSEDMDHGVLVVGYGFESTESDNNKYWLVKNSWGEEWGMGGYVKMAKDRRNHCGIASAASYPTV
Description: as §1, §2, §3, §4, §5

[5] = tested on: BALB/c mice; assay: Observation of side effects in treated mice; type: in vivo
[6] = molecular target: T1, Cathepsin H (Homo sapiens, UniProt P09668); assay: Selectivity test (Steps VI and IX), Cathepsin H; type: biochemical; settings: vehicle 4 X 10^-5 M; pH 6.8, substrate L-R-AFC; 40 µM
T1 sequence (P09668 98-335): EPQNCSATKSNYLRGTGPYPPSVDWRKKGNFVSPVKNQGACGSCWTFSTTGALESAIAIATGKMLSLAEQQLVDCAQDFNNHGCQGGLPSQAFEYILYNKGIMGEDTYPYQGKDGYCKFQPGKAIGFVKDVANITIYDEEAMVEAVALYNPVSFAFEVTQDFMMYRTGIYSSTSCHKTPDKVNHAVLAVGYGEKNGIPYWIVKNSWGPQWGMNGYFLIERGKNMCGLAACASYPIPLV
Description: as §1
as §2, with “All potential non-proteolytic liberation of AFC was therefore controlled for in this tube.” left out
(§6) Percent inhibition was calculated as: %Inhibition = ((AFC positive for "SI"−AFC negative for "SI")−(AFC test−AFC negative for "SI"))/(AFC positive for "SI"−AFC negative for "SI") × 100 [formula] […]

[7] = molecular target: Cathepsin D (Homo sapiens, UniProt P07339); assay: Selectivity test (Steps VI and IX), Cathepsin D; type: biochemical; settings: vehicle 4 X 10^-5 M; pH 7.1, substrate Z-RGFFP-AFC; 40 µM
Sequence of Cathepsin D (P07339 65-412): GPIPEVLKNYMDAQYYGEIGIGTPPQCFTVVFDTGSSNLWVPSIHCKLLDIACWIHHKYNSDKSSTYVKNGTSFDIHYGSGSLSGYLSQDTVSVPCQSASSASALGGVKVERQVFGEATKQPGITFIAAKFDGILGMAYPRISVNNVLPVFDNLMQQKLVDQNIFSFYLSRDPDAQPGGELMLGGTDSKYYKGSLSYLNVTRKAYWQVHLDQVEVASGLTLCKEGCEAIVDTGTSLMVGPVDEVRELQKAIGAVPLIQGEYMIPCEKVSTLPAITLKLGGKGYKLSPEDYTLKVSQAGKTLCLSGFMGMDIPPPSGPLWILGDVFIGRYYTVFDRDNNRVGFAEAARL
Description: as §1
as §2, with “All potential non-proteolytic liberation of AFC was therefore controlled for in this tube.” left out
as §6

[8] = inhibitor 3 X 10^-10 M, 0.0003 µM

| Compound | Tier [1] | % inhibition ([2]; vehicle 4 X 10^-5 M) | % inhibition ([3]; vehicle 4 X 10^-5 M, 40 µM) | % inhibition ([2]; inhibitor 3 X 10^-10 M) | % inhibition [4, 8] | % inhibition [3, 8] | side effects in treated animals ([5]; long or short-term period) | side effects in treated mice ([5]; long-term studies) | side effects / inhibitor toxicity in treated mice ([5]; mouse, in vivo) | % inhibition [6] | % inhibition ([4]; vehicle 4 X 10^-5 M) | % inhibition ([4]; vehicle 4 X 10^-5 M, 40 µM) | % inhibition [7] |
| --- | --- | --- | --- | --- | --- | --- | --- | --- | --- | --- | --- | --- | --- |
| CC(C)C[C@H](NC(=O)OCc1ccccc1)C(=O)N[C@@H](CC(C)C)C(=O)N[C@@H](CC(C)C)C(=O)Nc1ccc2c(C(F)(F)F)cc(=O)oc2c1 [Z-LLL-AFC, Z-Leu-Leu-Leu-AFC] (Cbz-Leu-Leu-Leu-{AFC}) | 1 (The first tier was composed of those vehicles that produced inhibition greater than 50% when in the presence of the 1.4% cocktail) | 68% | 0% | – | – | – | – | – | – | – | – | – | – |
| CC(C)C[C@H](NC(=O)OCc1ccccc1)C(=O)N[C@@H](CC(C)C)C(=O)N[C@@H](Cc1ccc(O)cc1)C(=O)Nc1ccc2c(C(F)(F)F)cc(=O)oc2c1 [Z-LLY-AFC, Z-Leu-Leu-Tyr-AFC] (Cbz-Leu-Leu-Tyr-{AFC}) | 1 (The first tier was composed of those vehicles that produced inhibition greater than 50% when in the presence of the 1.4% cocktail) | 70% | 0% | – | – | – | – | – | – | – | – | – | – |
| CC(C)C[C@H](NC(=O)OCc1ccccc1)C(=O)N[C@@H](CC(C)C)C(=O)N[C@@H](Cc1ccc(O)cc1)C(=O)CF [Z-LLY-FMK, Z-Leu-Leu-Tyr-FMK] (Cbz-Leu-Leu-Tyr-CH2F) | – | – | – | 62% | did not inhibit cathepsin L at all | 0% | only negligible side effects | no side effects | no mice showed effects of inhibitor toxicity | – | – | – | – |
| Mu-Leu-Tyr-AFC [Mu-LY-AFC] | 1 (The first tier was composed of those vehicles that produced inhibition greater than 50% when in the presence of the 1.4% cocktail) | 75% | 0% | – | – | – | – | – | – | 0% | 25% | subtle inhibition | 0% |
